Converted amounts (≈) assume the structure as drawn. The source made the active and inactive calls. The rule behind the calls is not given here.

The subject of one data set is Escherichia coli. The data set can be described thus: Antibacterial activity against Escherichia coli ATCC 25922 measured after 24 hrs by turbidimetric assay. Format: functional.
For data set [1], the system named is Staphylococcus aureus. The data set can be described thus: Antibacterial activity against methicillin-resistant Staphylococcus aureus Mu 50 measured after 24 hrs by turbidimetric assay. The data set is classed as functional.
The test system of data set [2] is Staphylococcus aureus. The data set is described as follows: Antibacterial activity against methicillin-sensitive Staphylococcus aureus ATCC 29213 measured after 24 hrs by turbidimetric assay. The data set is classed as functional.
In data set [3] the test system is Staphylococcus aureus. The data set can be described thus: Resistance development in methicillin-resistant Staphylococcus aureus Mu 50 assessed as fold change in MIC after and before 6 passages by broth dilution method. Format: functional.
The subject of data set [4] is Staphylococcus aureus. The data set can be described thus: Resistance development in methicillin-resistant Staphylococcus aureus Mu 50 assessed as MIC after 9 passages by broth dilution method. The data set is classed as functional.
Data set [5] relates to Staphylococcus aureus. The data set can be described thus: Synergistic antibacterial activity against methicillin-resistant Staphylococcus aureus Mu 50 at 64 to 128 ug/ml measured at 1 hr interval for 24 hrs in presence of oxacillin. The data set is classed as functional, organism-based. Conditions: dose 64-128 µg/ml.
Data set [6] is described as follows: Cytotoxicity against human intestinal epithelial cells assessed as reduction in cell viability at 64 ug/ml measured after 24 hrs by CCK-8 assay. The data set is classed as toxicity, cell-based. The following applies: dose 64 µg/ml.
Data set [7] concerns the target T1, MecA (Staphylococcus aureus) (UniProt Q7DHH4).
T1 sequence (whole entry): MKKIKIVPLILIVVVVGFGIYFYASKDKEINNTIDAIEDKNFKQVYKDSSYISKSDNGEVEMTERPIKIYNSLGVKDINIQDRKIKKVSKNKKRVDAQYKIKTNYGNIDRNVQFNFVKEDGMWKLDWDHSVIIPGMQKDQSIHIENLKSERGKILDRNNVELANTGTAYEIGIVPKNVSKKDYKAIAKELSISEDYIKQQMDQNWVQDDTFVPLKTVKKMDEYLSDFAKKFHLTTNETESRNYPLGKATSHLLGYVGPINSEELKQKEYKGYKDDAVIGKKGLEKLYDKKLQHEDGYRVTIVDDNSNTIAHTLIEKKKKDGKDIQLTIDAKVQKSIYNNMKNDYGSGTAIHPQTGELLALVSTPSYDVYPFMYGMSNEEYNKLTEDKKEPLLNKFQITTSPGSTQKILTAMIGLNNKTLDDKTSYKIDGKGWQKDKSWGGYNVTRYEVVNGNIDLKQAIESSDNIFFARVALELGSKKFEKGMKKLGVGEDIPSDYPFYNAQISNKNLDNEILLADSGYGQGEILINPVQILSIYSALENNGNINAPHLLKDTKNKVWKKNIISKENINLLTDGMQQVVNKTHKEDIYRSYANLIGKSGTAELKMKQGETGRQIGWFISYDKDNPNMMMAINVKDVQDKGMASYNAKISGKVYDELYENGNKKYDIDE
The data set is described as follows: Inhibition of PBP2a in methicillin-resistant Staphylococcus aureus Mu 50 assessed as abnormal cell division at 16 ug/ml measured after 12 hrs by transmission electron microscopy. The following applies: dose 16.0 µg/ml.

Data set [8] deals with Staphylococcus aureus. The data set can be described thus: Antibacterial activity against methicillin-resistant Staphylococcus aureus Mu 50 at 4 to 32 ug/ml measured at 1 hr interval for 24 hrs. The data set is classed as functional, organism-based. The following applies: dose 4-32 µg/ml.
The target in data set [9] is T1, MecA (Staphylococcus aureus). The data set can be described thus: Inhibition of PBP2a in methicillin-resistant Staphylococcus aureus Mu 50 assessed as blurred cell wall boundaries at 16 ug/ml measured after 12 hrs by transmission electron microscopy. The following applies: dose 16.0 µg/ml.
Data set [10] relates to Staphylococcus aureus. The data set can be described thus: Antibacterial activity against methicillin-sensitive Staphylococcus aureus ATCC 29213 at 4 to 32 ug/ml measured at 1 hr interval for 24 hrs. Format: functional, organism-based. The following applies: dose 4-32 µg/ml.
The test system of data set [11] is Staphylococcus aureus. The data set is described as follows: Bactericidal activity against methicillin-resistant Staphylococcus aureus Mu 50 assessed as reduction in colony formation at 8 to 32 ug/ml measured after 3 hrs by time-kill assay. The data set is classed as functional, organism-based. Conditions: dose 8-32 µg/ml.
The test system of data set [12] is Staphylococcus aureus. The data set is described as follows: Bactericidal activity against methicillin-resistant Staphylococcus aureus Mu 50 assessed as reduction in colony formation measured after 2 to 24 hrs by time-kill assay. Format: functional, organism-based. The following applies: dose 8-32 µg/ml, time 2-24 hrs.
Data set [13] in a line: Cytotoxicity against mouse BEND3 cells assessed as reduction in cell viability at 64 ug/ml measured after 24 hrs by CCK-8 assay. The data set is classed as toxicity, cell-based. The following applies: bend3, 24 h, dose 64 µg/ml. In general terms: Tetrazolium dyes change colour on reduction, which living cells bring about.
For data set [14], the system named is Staphylococcus aureus. The data set is described as follows: Synergistic antibacterial activity against methicillin-resistant Staphylococcus aureus Mu 50 at 16 to 32 ug/ml measured at 1 hr interval for 24 hrs in presence of oxacillin. The data set is classed as functional, organism-based. Conditions: dose 16-32 µg/ml.
The target in data set [15] is T1, MecA (Staphylococcus aureus). The data set can be described thus: Inhibition of PBP2a in methicillin-resistant Staphylococcus aureus Mu 50 assessed as disruption of bacterial cell wall integrity by measuring release of intracellular contents at 64 ug/ml measured after 12 hrs by transmission electron microscopy. Format: cell-based. Conditions: dose 64.0 µg/ml.

In the case of `Nc1ncnc2c1c(C#Cc1cccnc1)cn2[C@@H]1O[C@H](CSCc2cccc(C(=O)O)c2)[C@@H](O)[C@H]1O`, the MIC with Escherichia coli, against Staphylococcus aureus [1] and in the data set on Staphylococcus aureus [2] was over 128 µg/mL throughout.

Regarding `Nc1ncnc2c1ncn2[C@@H]1O[C@H](CSCc2cccc(C(=O)O)c2)[C@@H](O)[C@H]1O`, the MIC in the data set on Escherichia coli, with Staphylococcus aureus [1] and in the data set with Staphylococcus aureus [2] was over 128 µg/mL each time.

With `N#Cc1cccc(CSC[C@H]2O[C@@H](n3cnc4c(N)ncnc43)[C@H](O)[C@@H]2O)c1`, the MIC with Escherichia coli, against Staphylococcus aureus [1] and in the data set on Staphylococcus aureus [2] was over 128 µg/mL each time.

Turning to `Nc1ncnc2c1ncn2[C@@H]1O[C@H](CSCc2cccc(C(=O)O)n2)[C@@H](O)[C@H]1O`, the MIC in the data set on Escherichia coli, in the data set on Staphylococcus aureus [1] and in the data set with Staphylococcus aureus [2] was over 128 µg/mL in each case.

Take `CCO/N=C(\C(=O)N[C@@H]1C(=O)N2C(C(=O)[O-])=C(Sc3nc(-c4cc[n+](C)cc4)cs3)CS[C@H]12)c1nsc(NP(=O)(O)O)n1` [CEFTAROLINE FOSAMIL]: in the data set with Staphylococcus aureus [3], the “fold change (FC)” value was 2. The results for the minimum inhibitory concentration (MIC) in the data set with Staphylococcus aureus [4] and in the data set with Staphylococcus aureus [1] were 128 µg/mL (≈ 187 µM) and 32 µg/mL (≈ 46.7 µM), respectively.

`Nc1ncnc2c1c(C#Cc1ccccc1)cn2[C@@H]1O[C@H](CSCc2cccc(C(=O)O)c2)[C@@H](O)[C@H]1O`: the minimum inhibitory concentration (MIC) in the data set with Escherichia coli, against Staphylococcus aureus [1] and against Staphylococcus aureus [2] was over 128 µg/mL throughout.

Consider `Nc1ncnc2c1c(C#Cc1cccc(F)c1)cn2[C@@H]1O[C@H](CSCc2cccc(C(=O)O)c2)[C@@H](O)[C@H]1O`, for which the minimal inhibitory concentration (MIC) with Escherichia coli, against Staphylococcus aureus [1] and with Staphylococcus aureus [2] was over 128 µg/mL in each case.

Consider `Nc1ncnc2c1c(C#Cc1ccc3sccc3c1)cn2[C@@H]1O[C@H](CSCc2cccc(C(=O)O)c2)[C@@H](O)[C@H]1O`, for which the minimum inhibitory concentration (MIC) (commonly the least concentration at which growth counts as inhibited) in the data set on Staphylococcus aureus [4] was 64 µg/mL (≈ 112 µM); in the data set on Escherichia coli it was over 128 µg/mL; with Staphylococcus aureus [1], 16 µg/mL (≈ 27.9 µM); with Staphylococcus aureus [2], over 128 µg/mL. Also, the Activity entry with Staphylococcus aureus [5] is “Not active; Decreased The Activity Of Oxacillin”; in data set [6], “Non-toxic”; in the data set on Staphylococcus aureus [8], “Active; Significant Inhibition Observed”; in the data set with Staphylococcus aureus [11], “Active; Significant Reduction Observed”; in the data set on Staphylococcus aureus [12], “Dose-dependent-effect”; in data set [13], “Non-toxic”. Moreover, in the data set on Staphylococcus aureus [14], the Activity entry is reported as “Active; Enhanced The Inhibitory Effect Of Oxacillin”. In addition, the inhibition result in data set [7] and in [9] was “Active; Significantly Inhibits The Cross-Linking Of Peptidoglycan Substrates By Pbp2A” throughout. For the same molecule, the outcome in the data set on Staphylococcus aureus [10] was inactive.

Take `Nc1ncnc2c1ncn2[C@@H]1O[C@H](CSCc2cncc(C(=O)O)n2)[C@@H](O)[C@H]1O`: the MIC in the data set with Escherichia coli, against Staphylococcus aureus [1] and against Staphylococcus aureus [2] was over 128 µg/mL in each case.

With `Nc1ncnc2c1ncn2[C@@H]1O[C@H](CSCc2cc(C(=O)O)no2)[C@@H](O)[C@H]1O`, the minimum inhibitory concentration (MIC) against Escherichia coli, in the data set with Staphylococcus aureus [1] and in the data set on Staphylococcus aureus [2] was over 128 µg/mL in each case.

Consider `Cc1onc(-c2ccccc2)c1C(=O)N[C@@H]1C(=O)N2[C@@H]1SC(C)(C)[C@@H]2C(=O)O` [OXACILLIN], for which the inhibition result in data set [15] is “Active”. This molecule also had an MIC with Staphylococcus aureus [1] of 64 µg/mL (≈ 159 µM).

In the case of `Nc1ncnc2c1c(C#Cc1ccc3ccccc3c1)cn2[C@@H]1O[C@H](CSCc2cccc(C(=O)O)c2)[C@@H](O)[C@H]1O`, the figures for the MIC in the data set on Escherichia coli, in the data set on Staphylococcus aureus [1] and in the data set on Staphylococcus aureus [2] were over 128 µg/mL, 32 µg/mL (≈ 56.5 µM) and over 128 µg/mL, respectively.

For `Nc1ncnc2c1c(C#Cc1cccc([N+](=O)[O-])c1)cn2[C@@H]1O[C@H](CSCc2cccc(C(=O)O)c2)[C@@H](O)[C@H]1O`, the MIC in the data set with Escherichia coli, in the data set on Staphylococcus aureus [1] and in the data set with Staphylococcus aureus [2] was over 128 µg/mL throughout.

Source of the values: ChEMBL document CHEMBL6109093, “Designing novel nucleoside inhibitors targeting the allosteric site of PBP2a: A strategic approach to overcome resistance in MRSA” (Bioorg Med Chem, 2025).
